The results in this text go back to ChEMBL document CHEMBL1201862, “PubChem BioAssay data set” (2004).

Experiment in all cases: DTP human tumour cell line panel, 48 h
In test [1] the test system is UACC-257.
For test [2], the system named is MCF7.
For test [3], the system named is PC-3.
Test [4] concerns A498.
Test [5] has as its system U-251.
Test [6] concerns SNB-75.
Test [7] deals with M14.
Test [8] has as its system NCI-H226.
The subject of test [9] is IGROV-1.
For test [10], the system named is DU-145.
Test [11] relates to NCI-H460.
Test [12] deals with OVCAR-5.
Test [13] concerns HT-29.
Test [14] deals with SK-MEL-28.
Test [15] relates to ACHN.
The subject of test [16] is BT-549.
The subject of test [17] is HOP-92.
The test system of test [18] is Hs-578T.
Test [19] has as its system MDA-MB-231.

The structures appear in SMILES notation.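 Dose response: 5 concentrations. Exposure: 48 h. Format: 96-well plates. Endpoint: linear interpolation; highest concentration if not reached. GI50 = concentration required for 50% inhibition of growth.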 Calls of active or inactive are those of the source. Rule as the data show it: active = GI50 up to about 1.1 µM and inactive = higher.

In the case of `Cc1cc(S(=O)(=O)Nc2nc(N)nc(N(C)C)n2)c(S)cc1Cl`, the GI50 in test [1], in test [2], in [3], in test [4], in test [5] and in test [6] was > 10 µM (inactive) each time. In addition, the GI50 in test [7], in [8], in test [9], in [10], in [11] and in [12] was > 10 µM (inactive) each time. Besides, the GI50 in [13], in test [14], in test [15], in [16] and in test [17] was > 10 µM (inactive) each time.

`C=C1C(=O)OC2C1CCC(C)C1(O)C=CC(=O)C21C` (stereo not drawn): the GI50 in [2] is > 10 µM (inactive); in [3], > 10 µM (inactive); in test [18], > 10 µM (inactive); in [4], 5.46 µM (inactive); in [5] it was > 10 µM (inactive); in [6], 6.65 µM (inactive). In addition, the GI50 in test [8] was > 10 µM (inactive); in test [9] it was > 10 µM (inactive); in [11], > 10 µM (inactive); in [13], > 10 µM (inactive); in test [14] it was 5.92 µM (inactive); in test [15], 5.66 µM (inactive). Further, in [17], the GI50 is 3.33 µM (inactive).

Turning to `COC(=O)[C@@H]1CCCN1CCN1CCC[C@H]1C(=O)OC`, the GI50 in test [2], in test [3], in test [4], in test [5], in test [7] and in [10] was > 100 µM (inactive) each time. Moreover, the GI50 in [11], in test [12], in [13], in test [14], in [15] and in test [19] was > 100 µM (inactive) throughout. Besides, in test [17], the GI50 was > 100 µM (inactive).

For `COc1ccc(/C=C/c2ccnc3ccccc23)cc1OC`, the GI50 in [1] is 21.2 µM (inactive); in test [2] it was 6.82 µM (inactive); in test [3], 15.8 µM (inactive); in test [18], 18.1 µM (inactive); in [4] it was 11.5 µM (inactive); in [5] it was 46.9 µM (inactive). The GI50 in test [7] was 20 µM (inactive); in [8], 22.9 µM (inactive); in test [9] it was 15.5 µM (inactive); in test [10] it was 13.7 µM (inactive); in test [11] it was 15.2 µM (inactive); in [12], 12.9 µM (inactive). For the same compound, the GI50 in test [13] was 12.4 µM (inactive); in [14] it was 17.5 µM (inactive); in test [15], 24.2 µM (inactive).

On to `Cc1sc(N/N=C2\C(=O)Nc3ccccc32)nc1-c1ccccc1`, for which the GI50 in test [1] is 21.4 µM (inactive); in test [2], 15.3 µM (inactive); in [4] it was 15.1 µM (inactive); in test [5], 11 µM (inactive); in test [6], 19.7 µM (inactive); in [7], 16 µM (inactive). In addition, the GI50 was 33.3 µM (inactive) in [8]; 9.48 µM (inactive) in test [9]; 11.6 µM (inactive) in test [10]; 10.2 µM (inactive) in test [11]; 20.9 µM (inactive) in test [12]; 20.3 µM (inactive) in [13]. Also, the GI50 in test [14] is 17.3 µM (inactive); in test [15], 15.3 µM (inactive); in test [16], 16.3 µM (inactive); in test [19] it was 14.5 µM (inactive); in test [17], 23 µM (inactive).

With `CCOC(=O)C(=O)/C(=C/n1c(=S)[nH]c2ccc([N+](=O)[O-])cc21)C(=O)OCC`, the GI50 in [1], in test [2], in test [3], in [18], in test [4] and in [5] was > 100 µM (inactive) throughout. Moreover, the GI50 in test [6] was 90.4 µM (inactive); in test [7], > 100 µM (inactive); in test [8], 60 µM (inactive); in [10] it was > 100 µM (inactive); in test [11] it was > 100 µM (inactive); in test [12] it was > 100 µM (inactive). Further, the GI50 in test [13], in test [14], in test [15], in [19] and in test [17] was > 100 µM (inactive) each time.

For the compound `O=C(CCCN1CCc2[nH]c3cc(F)ccc3c2C1)c1ccc(F)cc1`, the GI50 in [1] was 15.4 µM (inactive); in test [2], 4.59 µM (inactive); in test [3] it was 12.9 µM (inactive); in test [18] it was 10.5 µM (inactive); in [4] it was 11.8 µM (inactive); in test [5] it was 16.3 µM (inactive). Besides, the GI50 was 11 µM (inactive) in test [6]; 9.82 µM (inactive) in test [7]; 18.7 µM (inactive) in [8]; 16.4 µM (inactive) in [9]; 13.3 µM (inactive) in test [10]; 10.9 µM (inactive) in test [11]. Besides, the GI50 was 12.2 µM (inactive) in test [12]; 6.11 µM (inactive) in test [13]; 20.3 µM (inactive) in test [14]; 13.8 µM (inactive) in [15]; 12.5 µM (inactive) in [19]; 2.26 µM (inactive) in test [17].

On to `CN(C)CCNC(=O)c1cc(-c2nccn2C)nc2ccccc12`, for which the GI50 in test [1] was > 100 µM (inactive); in test [2], 70.1 µM (inactive); in [3], > 100 µM (inactive); in test [4], > 100 µM (inactive); in test [5], > 100 µM (inactive); in [6], > 100 µM (inactive). In addition, the GI50 in [7] was > 100 µM (inactive); in test [8], > 100 µM (inactive); in test [9], > 100 µM (inactive); in test [10], > 100 µM (inactive); in test [11], 34.4 µM (inactive); in test [12], > 100 µM (inactive). Further, the GI50 in [13] was > 100 µM (inactive); in [15], 58.3 µM (inactive); in test [16], 81.1 µM (inactive); in test [19] it was > 100 µM (inactive); in [17] it was 64.7 µM (inactive).

Take `COc1c(Br)cc(/C=C(\C#N)c2ccccn2)cc1Br`: the GI50 was > 100 µM (inactive) in test [1]; 26.1 µM (inactive) in test [2]; > 100 µM (inactive) in test [3]; < 0.01 µM (active) in [4]; 13.3 µM (inactive) in [5]; 0.891 µM (active) in [6]. The GI50 in test [7] was > 100 µM (inactive); in test [8] it was 48.4 µM (inactive); in [9] it was 51.4 µM (inactive); in test [10], 37.8 µM (inactive); in test [11] it was > 100 µM (inactive); in test [12] it was > 100 µM (inactive). The GI50 in [13] was > 100 µM (inactive); in test [14] it was > 100 µM (inactive); in [15] it was > 100 µM (inactive); in [16], 22.8 µM (inactive).
